details: topical or ocular, 5 microgram per mL
Method: Liver microsomal stability assays were conducted at 1 mg per mL liver microsome protein with an NADPH-generating system in 2% NaHCO3 (2.2 mM NADPH, 25.6 mM glucose 6-phosphate, 6 units per mL glucose 6-phosphate dehydrogenase and 3.3 mM MgCl2). Test compounds were prepared as solutions in 20% acetonitrile-water and added to the assay mixture (final assay concentration 5 microgram per mL) and incubated at 37° C. Final concentration of acetonitrile in the assay should be <1%. Aliquots (50 μL) were taken out at times 0, 15, 30, 45, and 60 minutes, and diluted with ice cold acetonitrile (200 μL) to stop the reactions. Samples were centrifuged at 12000 RPM for 10 minutes to precipitate proteins. Supernatants were transferred to microcentrifuge tubes and stored for LC/MS/MS analysis of the degradation half-life of the test compounds.

| SMILES | increase in the degradation half-life as compared to the non-isotopically enriched drug (clarithromycin) |
| --- | --- |
| [2H]C([2H])([2H])O[C@]1(C)C[C@@H](C)C(=O)[C@H](C)[C@@H](O)[C@](C)(O)[C@@H](CC)OC(=O)[C@H](C)[C@@H](O[C@H]2C[C@@](C)(OC)[C@@H](O)[C@H](C)O2)[C@H](C)[C@H]1O[C@@H]1O[C@H](C)C[C@H](N(C)C)[C@H]1O [Example 8, d3-6-O-Methyl-Erythromycin A (d3-clarithromycin)] | 10-400% |
| [2H]C([2H])([2H])O[C@]1(C)C[C@@H](C)C(=O)[C@H](C)[C@@H](O)[C@](C)(O)[C@@H](CC)OC(=O)[C@H](C)[C@@H](O[C@H]2C[C@@](C)(OC)[C@@H](O)[C@H](C)O2)[C@H](C)[C@H]1O[C@@H]1O[C@H](C)C[C@H](N(C)C([2H])([2H])[2H])[C@H]1O [Example 11, d6-6-O-Methyl-Erythromycin A (d6-clarithromycin)] | 10-400% |
| [2H]C([2H])([2H])N(C)[C@H]1C[C@@H](C)O[C@@H](O[C@@H]2[C@@H](C)[C@H](O[C@H]3C[C@@](C)(OC)[C@@H](O)[C@H](C)O3)[C@@H](C)C(=O)O[C@H](CC)[C@@](C)(O)[C@H](O)[C@@H](C)C(=O)[C@H](C)C[C@@]2(C)OC)[C@@H]1O [Example 12, d3-6-O-Methyl-Erythromycin A (d3-clarithromycin)] | 10-400% |

— patent publication US20070281894A1, “PREPARATION AND UTILITY OF SUBSTITUTED ERYTHROMYCIN ANALOGS” (Auspex Pharmaceuticals, Inc., priority 2006, published 2007)
